The record followed here is patent US12091425B2 (AMGEN INC., priority 2016, dated 2024).

Usually IC50 stands for the midpoint of a concentration-inhibition curve.

T1 sequence (Q07820 171-327): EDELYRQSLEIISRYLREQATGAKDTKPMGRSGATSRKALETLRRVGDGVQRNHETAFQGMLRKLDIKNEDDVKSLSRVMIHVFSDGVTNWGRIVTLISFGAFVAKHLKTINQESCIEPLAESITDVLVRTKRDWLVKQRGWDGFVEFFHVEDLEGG

The first assay has as its target T1, Mcl-1/Bim interaction, recombinant human Mcl-1 (171-327) (Homo sapiens, UniProt Q07820).
T1 construct: made in house
Description: Cell free Mcl-1: Bim Affinity Assay (Mcl-1 HTRF). The class given is binding. The conditions noted are these: TR-FRET, 0.1 nM Mcl-1 (171-327), 0.05 nM biotin-Bim (51-76). On the procedure: Cell free Mcl-1: Bim Affinity Assay (Mcl-1 HTRF)
The inhibition of the Mcl-1/Bim interaction was measured using a time-resolved fluorescence resonance energy transfer (TR-FRET) assay. […] A biotinylated peptide derived from human Bim (residues 51-76) was purchased from CPC Scientific (San Jose, CA). The TR-FRET assay was conducted in a 384-well white OptiPlatem (PerkinElmer, Waltham, MA) in a total volume of 40 μL. […] The reaction plates were further incubated overnight and then were read on an Envision® multimode reader (PerkinElmer). […] The IC50 values of test compounds were determined from duplicate data by analyzing competition curves using a four-parameter sigmoidal model in GraphPad Prism (GraphPad Software, San Diego, CA) or in Genedata Screener® (Genedata, Basel, Switzerland).
A general note: In TR-FRET formats the signal depends on donor and acceptor labels being close together.
Take `CCO[C@H]1/C=C/CC[C@@H](CC)S(=O)(=O)NC(=O)c2ccc3c(c2)N(C[C@@H]2CC[C@H]21)C[C@@]1(CCCc2cc(Cl)ccc21)CO3` [Example 975, (1S,3′R,6′R,7′S,8′E,12′R)-6-chloro-7′-ethoxy-12′-ethyl-3,4-dihydro-2H,15′H-spiro[naphthalene-1,22′-[20]oxa[13]thia[1,14]diazatetracyclo[14.7.2.0^3,6.0^19,24]pentacosa [8,16,18,24]tetraen]-15′-one 13′,13′-dioxide]: the IC50 was 2.15 nM. Consider `COC(=O)C1CCN(C(=O)[C@H]2CC/C=C\[C@H](O)[C@@H]3CC[C@H]3CN3C[C@@]4(CCCc5cc(Cl)ccc54)COc4ccc(cc43)C(=O)NS2(=O)=O)CC1` [Example 143], for which the IC50 amounted to 2 nM.

In the case of `CC[C@@H]1CC/C=C/[C@H](OCCC2OCCO2)[C@@H]2CC[C@H]2CN2C[C@@]3(CCCc4cc(Cl)ccc43)COc3ccc(cc32)C(=O)NS1(=O)=O` [Example 968, (1S,3′R,6′R,7′S,8′E,12′R)-6-chloro-7′-(2-(1,3-dioxolan-2-yl)ethoxy)-12′-ethyl-3,4-dihydro-2H,15′H-spiro[naphthalene-1,22′-[20]oxa[13]thia[1,14]diazatetracyclo[14.7.2.0^3,6.0^19,24]pentacosa [8,16,18,24]tetraen]-15′-one 13′,13′-dioxide], the IC50 is 1.9 nM.

On to `CC[C@@H]1CC/C=C/[C@H](OCC(=O)Nc2ccncc2)[C@@H]2CC[C@H]2CN2C[C@@]3(CCCc4cc(Cl)ccc43)COc3ccc(cc32)C(=O)NS1(=O)=O` [Example 1000, 2-(((1S,3′R,6′R,7′S,8′E,12′R)-6-chloro-12′-ethyl-13′,13′-dioxido-15′-oxo-3,4-dihydro-2H-spiro[naphthalene-1,22′-[20]oxa[13]thia[1,14]diazatetracyclo[14.7.2.0^3,6.0^19,24]pentacosa [8,16,18,24]tetraen]-7′-yl)oxy)-N-4-pyridinylacetamide], for which the IC50 was 3.14 nM.

Consider `CC[C@@H]1CC/C=C/[C@H](OCC(=O)N2CCS(=O)(=O)CC2)[C@@H]2CC[C@H]2CN2C[C@@]3(CCCc4cc(Cl)ccc43)COc3ccc(cc32)C(=O)NS1(=O)=O` [Example 999, (1S,3′R,6′R,7′S,8′E,12′R)-6-chloro-7′-(2-(1,1-dioxido-4-thiomorpholinyl)-2-oxoethoxy)-12′-ethyl-3,4-dihydro-2H,15′H-spiro[naphthalene-1,22′-[20]oxa[13]thia[1,14]diazatetracyclo[14.7.2.0^3,6.0^19,24]pentacosa [8,16,18,24]tetraen]-15′-one 13′,13′-dioxide], for which the IC50 is 0.373 nM. On to `CCOC[C@@H]1CC/C=C/[C@H](O)[C@@H]2CC[C@H]2CN2C[C@@]3(CCCc4cc(Cl)ccc43)COc3ccc(cc32)C(=O)NS1(=O)=O` (single isomer, unassigned) [Example 439], for which the IC50 was 0.321 nM.

In the case of `CC[C@@H]1CC/C=C/[C@@H](NC(=O)C(C)C)[C@@H]2CC[C@H]2CN2C[C@@]3(CCCc4cc(Cl)ccc43)COc3ccc(cc32)C(=O)NS1(=O)=O` [Example 1081], the IC50 is 0.947 nM. Still for that read-out and setting: the result for `O=C1NS(=O)(=O)C[C@H](CO)C/C=C/[C@@H](O)[C@@H]2CC[C@H]2CN2C[C@@]3(CCCc4cc(Cl)ccc43)COc3ccc1cc32` (single isomer, unassigned) [Example 1090] reads 2.77 nM; that for `CN(C)C(=O)[C@H]1CC/C=C/[C@H](O)[C@@H]2CC[C@H]2CN2C[C@@]3(CCCc4cc(Cl)ccc43)COc3ccc(cc32)C(=O)NS1(=O)=O` (single isomer, unassigned) [Example 437], 3.77 nM; that for `C[C@@H]1[C@@H](C)C[C@H](CCN2CCOCC2)/C=C/[C@@H]2CC[C@H]2CN2C[C@@]3(CCCc4cc(Cl)ccc43)COc3ccc(cc32)C(=O)NS1(=O)=O` [Example 115, (1S,3′R,6′S,7′E,9′R,11′S,12′R)-6-chloro-11′,12′-dimethyl-9′-(2-(4-morpholinyl)ethyl)-3,4-dihydro-2H,15′H-spiro[naphthalene-1,22′-[20]oxa[13]thia[1,14]diazatetracyclo[14.7.2.0^3,6.0^19,24]pentacosa[7,16,18,24]tetraen]-15′-one 13′,13′-dioxide], 2.71 nM. On to `C[C@]12CC[C@H]1CN1C[C@@]3(CCCc4cc(Cl)ccc43)COc3ccc(cc31)C(=O)NS(=O)(=O)CCCCC[C@@H]2O` (single isomer, unassigned) [Example 121], for which the IC50 came to 12.2 nM.

With `C[C@]12CC[C@H]1CN1C[C@@]3(CCCc4cc(Cl)ccc43)COc3ccc(cc31)C(=O)NS(=O)(=O)CCCCC[C@@H]2O` (single isomer, unassigned) [Example 122], the concentration for half-maximal inhibition (IC50) was found to be 7.17 nM. With `CN1CCCCS(=O)(=O)NC(=O)c2ccc3c(c2)N(C[C@@H]2CC[C@H]2C1=O)C[C@@]1(CCCc2cc(Cl)ccc21)CO3` [Example 99, (1S,3′R,6′R)-6-chloro-8′-methyl-3,4-dihydro-2H,7′H,15′H-spiro[naphthalene-1,22′-[20]oxa[13]thia[1,8,14]triazatetracyclo[14.7.2.0^3,6.0^19,24]pentacosa[16,18,24]trien]-7′,15′-dione 13′,13′-dioxide], the IC50 was found to be 20.7 nM.

The same assay, now with this note: cell free Mcl-1:Bim TR-FRET, recombinant human Mcl-1 (171-327).
As to `C=C1CCCCCS(=O)(=O)NC(=O)c2ccc3c(c2)N(C[C@@H]2CC[C@@H]12)C[C@@]1(CCCc2cc(Cl)ccc21)CO3` [Example 904, (1S,3′R,6′R)-6-chloro-7′-methylidene-3,4-dihydro-2H,15′H-spiro[naphthalene-1,22′-[20]oxa[13]thia[1,14]diazatetracyclo[14.7.2.0^3,6.0^19,24]pentacosa [16,18,24]trien]-15′-one 13′,13′-dioxide], the half-inhibitory concentration (IC50) came out at 16.2 nM. Same read-out and setting: the result for `CC[C@@H]1CC/C=C/C(=O)[C@@H]2CC[C@H]2CN2C[C@@]3(CCCc4cc(Cl)ccc43)COc3ccc(cc32)C(=O)NS1(=O)=O` [Example 915, (1S,3′R,6′R,8′E,12′R)-6-chloro-12′-ethyl-3,4-dihydro-2H,7′H,15′H-spiro[naphthalene-1,22′-[20]oxa[13]thia[1,14]diazatetracyclo[14.7.2.0^3,6.0^19,24]pentacosa [8,16,18,24]tetraene]-7′,15′-dione 13′,13′-dioxide] reads 16.2 nM; that for `O=C1NS(=O)(=O)C[C@@H](CO)C/C=C/C[C@H](O)[C@@H]2CC[C@H]2CN2C[C@@]3(CCCc4cc(Cl)ccc43)COc3ccc1cc32.O=C1NS(=O)(=O)C[C@H](CO)C/C=C/C[C@H](O)[C@@H]2CC[C@H]2CN2C[C@@]3(CCCc4cc(Cl)ccc43)COc3ccc1cc32` (mixture of isomers) [Example 710], 25.6 nM.

Regarding `O=C1NS(=O)(=O)C/C=C/C[C@@H](O)C[C@@H]2CC[C@H]2CN2C[C@@]3(CCCc4cc(Cl)ccc43)COc3ccc1cc32` (single isomer, unassigned) [Example 912], the IC50 worked out at 7.78 nM.

Consider `C[C@@H]1CC/C=C/C(=O)[C@@H]2CC[C@H]2CN2C[C@@]3(CCCc4cc(Cl)ccc43)COc3ccc(cc32)C(=O)NS1(=O)=O` [Example 604, (1S,3′R,6′R,8′E,12′R)-6-chloro-12′-methyl-3,4-dihydro-2H,7′H,15′H-spiro[naphthalene-1,22′-[20]oxa[13]thia[1,14]diazatetracyclo[14.7.2.0^3,6.0^19,24]pentacosa [8,16,18,24]tetraene]-7′,15′-dione 13′,13′-dioxide], for which the half-inhibitory concentration (IC50) was determined as 9.58 nM. Same read-out and setting: the result for `O=C1NS(=O)(=O)C[C@H](O)/C=C/C[C@H](O)[C@@H]2CC[C@H]2CN2C[C@@]3(CCCc4cc(Cl)ccc43)COc3ccc1cc32` (single isomer, unassigned) [Example 598] reads 1.49 nM; that for `O=C1NS(=O)(=O)[C@H](CCOc2ccc(Br)cc2)CC/C=C/[C@H](O)[C@@H]2CC[C@H]2CN2C[C@@]3(CCCc4cc(Cl)ccc43)COc3ccc1cc32` (single isomer, unassigned) [Example 625], 38.3 nM. On the same count and under the same terms, the result for `O=C1NS(=O)(=O)C[C@@H](O)/C=C/C[C@H](O)[C@@H]2CC[C@H]2CN2C[C@@]3(CCCc4cc(Cl)ccc43)COc3ccc1cc32` (single isomer, unassigned) [Example 597] reads 1.46 nM. Still for that read-out and setting: the result for `C[C@@H]1CC/C=C/[C@H](NC(=O)N(C)C)[C@@H]2CC[C@H]2CN2C[C@@]3(CCCc4cc(Cl)ccc43)COc3ccc(cc32)C(=O)NS1(=O)=O` [Example 601, 3-((1S,3′R,6′R,7′S,8′E,12′R)-6-chloro-12′-methyl-13′,13′-dioxido-15′-oxo-3,4-dihydro-2H-spiro[naphthalene-1,22′-[20]oxa[13]thia[1,14]diazatetracyclo[14.7.2.0^3,6.0^19,24]pentacosa [8,16,18,24]tetraen]-7′-yl)-1,1-dimethylurea-trifluoroacetate] reads 1.33 nM; that for `O=C1NS(=O)(=O)CCCCCC(=O)[C@@H]2CC[C@H]2CN2C[C@@]3(CCCc4cc(Cl)ccc43)COc3ccc1cc32` [Example 832, (1S,3′R,6′R)-6-chloro-3,4-dihydro-2H,7′H,15′H-spiro[naphthalene-1,22′-[20]oxa[13]thia[1,14]diazatetracyclo[14.7.2.0^3,6.0^19,24]pentacosa [16,18,24]triene]-7′,15′-dione 13′,13′-dioxide], 8.26 nM.
